Laboratory results published in US20070173462A1, “Treatment of diseases associated with the use of antibiotics” (Optimer Pharmaceuticals, Inc., priority 2004, published 2007).
Converted amounts (≈) assume the structure as drawn. Where two headings read alike, the source gives them in different places.

What was measured:
[1] = tested on: Streptococcus milleri group; test: microbe, parasite or virus in culture; format: cell-based; conditions: clinical gastrointestinal isolates, n=14
C. difficile = test: MIC via agar dilution, 110 genetically distinct clinical isolates of C. difficile; format: cell-based
[2] = Clostridioides difficile, 110 clinical isolates, agar dilution

In the case of `CCc1c(Cl)c(O)c(Cl)c(O)c1C(=O)O[C@H]1[C@H](O)[C@H](OC)[C@H](OC/C2=C\C=C\C[C@H](O)/C(C)=C/[C@H](CC)C(O[C@@H]3OC(C)(C)[C@@H](OC(=O)C(C)C)[C@H](O)[C@@H]3O)/C(C)=C/C(C)=C/C[C@@H](C(C)O)OC2=O)O[C@@H]1C` (some centres unmarked) [Compound I], the MIC50 ([1]; Streptococcus milleri) is reported as 32 µg/mL (≈ 30.2 µM), the MIC90 ([1]; Streptococcus milleri) is reported as 32 µg/mL (≈ 30.2 µM) and the “Range (MIC)” value [1] is reported as 16 to 64 µg/mL. For the same compound, the “Range (MIC)” value (C. difficile; 110 clinical isolates, agar dilution) was 0.015 to 0.25 µg/mL, the MIC (C. difficile; Clostridioides difficile) was 0.125 µg/mL (≈ 0.118 µM) and the MIC (C. difficile; Clostridioides difficile, isolate ORG ID 61 5930, read-out: MIC) was 0.03 µg/mL (≈ 0.0284 µM). The MIC (C. difficile; Clostridioides difficile, isolate ORG ID 63 6029, read-out: MIC) was 0.25 µg/mL (≈ 0.236 µM), the MIC (C. difficile; Clostridioides difficile, isolate ORG ID 65 5967, read-out: MIC) was 0.06 µg/mL (≈ 0.0567 µM) and the MIC (C. difficile; Clostridioides difficile, isolate ORG ID 66 6366, read-out: MIC) was 0.015 µg/mL (≈ 0.0142 µM). The MIC (C. difficile; Clostridioides difficile, isolate ORG ID 68 6368, read-out: MIC) was 0.03 µg/mL (≈ 0.0284 µM), the MIC (C. difficile; Clostridioides difficile, isolate ORG ID 69 6370, read-out: MIC) was 0.25 µg/mL (≈ 0.236 µM) and the MIC (C. difficile; Clostridioides difficile, isolate ORG ID 73 6382, read-out: MIC) was 0.25 µg/mL (≈ 0.236 µM). It also gave an MIC (C. difficile; Clostridioides difficile, isolate ORG ID 77 6390, read-out: MIC) of 0.06 µg/mL (≈ 0.0567 µM), an MIC (C. difficile; Clostridioides difficile, isolate ORG ID 78 6392, read-out: MIC) of 0.015 µg/mL (≈ 0.0142 µM) and an MIC (C. difficile; Clostridioides difficile, isolate ORG ID 82 6329, read-out: MIC) of 0.06 µg/mL (≈ 0.0567 µM). The MIC (C. difficile; Clostridioides difficile, isolate ORG ID 83 6330, read-out: MIC) was 0.06 µg/mL (≈ 0.0567 µM), the MIC (C. difficile; Clostridioides difficile, isolate ORG ID 85 6332, read-out: MIC) was 0.06 µg/mL (≈ 0.0567 µM) and the MIC (C. difficile; Clostridioides difficile, isolate ORG ID 86 6333, read-out: MIC) was 0.03 µg/mL (≈ 0.0284 µM). The MIC (C. difficile; Clostridioides difficile, isolate ORG ID 89 6336, read-out: MIC) was 0.25 µg/mL (≈ 0.236 µM), the MIC (C. difficile; Clostridioides difficile, isolate ORG ID 94 6343, read-out: MIC) was 0.015 µg/mL (≈ 0.0142 µM) and the MIC (C. difficile; Clostridioides difficile, isolate ORG ID 96 6348, read-out: MIC) was 0.06 µg/mL (≈ 0.0567 µM). The MIC (C. difficile; Clostridioides difficile, isolate ORG ID 97 6349, read-out: MIC) was 0.25 µg/mL (≈ 0.236 µM), the MIC (C. difficile; Clostridioides difficile, isolate ORG ID 101 6354, read-out: MIC) was 0.015 µg/mL (≈ 0.0142 µM) and the MIC (C. difficile; Clostridioides difficile, isolate ORG ID 102 6355, read-out: MIC) was 0.016 µg/mL (≈ 0.0151 µM). The MIC (C. difficile; Clostridioides difficile, isolate ORG ID 103 6068, read-out: MIC) was 0.06 µg/mL (≈ 0.0567 µM), the MIC (C. difficile; Clostridioides difficile, isolate ORG ID 104 6060, read-out: MIC) was 0.03 µg/mL (≈ 0.0284 µM) and the MIC (C. difficile; Clostridioides difficile, isolate ORG ID 105 6071, read-out: MIC) was 0.03 µg/mL (≈ 0.0284 µM). The MIC (C. difficile; Clostridioides difficile, isolate ORG ID 106 6078, read-out: MIC) was 0.03 µg/mL (≈ 0.0284 µM), the MIC (C. difficile; Clostridioides difficile, isolate ORG ID 107 6079, read-out: MIC) was 0.06 µg/mL (≈ 0.0567 µM) and the MIC (C. difficile; Clostridioides difficile, isolate ORG ID 109 6274, read-out: MIC) was 0.015 µg/mL (≈ 0.0142 µM). It also gave an MIC (C. difficile; Clostridioides difficile, isolate ORG ID 111 6279, read-out: MIC) of 0.03 µg/mL (≈ 0.0284 µM), an MIC (C. difficile; Clostridioides difficile, isolate ORG ID 112 6280, read-out: MIC) of 0.06 µg/mL (≈ 0.0567 µM) and an MIC (C. difficile; Clostridioides difficile, isolate ORG ID 113 6304, read-out: MIC) of 0.06 µg/mL (≈ 0.0567 µM). For the same compound, the MIC (C. difficile; Clostridioides difficile, isolate ORG ID 114 386, read-out: MIC) was 0.06 µg/mL (≈ 0.0567 µM), the MIC (C. difficile; Clostridioides difficile, isolate ORG ID 115 5985, read-out: MIC) was 0.015 µg/mL (≈ 0.0142 µM) and the MIC (C. difficile; Clostridioides difficile, isolate ORG ID 116 5702, read-out: MIC) was 0.06 µg/mL (≈ 0.0567 µM). The MIC (C. difficile; Clostridioides difficile, isolate ORG ID 117 6026, read-out: MIC) was 0.06 µg/mL (≈ 0.0567 µM), the MIC (C. difficile; Clostridioides difficile, isolate ORG ID 120 6057, read-out: MIC) was 0.03 µg/mL (≈ 0.0284 µM) and the MIC (C. difficile; Clostridioides difficile, isolate ORG ID 121 6072, read-out: MIC) was 0.06 µg/mL (≈ 0.0567 µM). For the same compound, the MIC (C. difficile; Clostridioides difficile, isolate ORG ID 122 6111, read-out: MIC) was 0.25 µg/mL (≈ 0.236 µM), the MIC (C. difficile; Clostridioides difficile, isolate ORG ID AA2 4380, read-out: MIC) was 0.015 µg/mL (≈ 0.0142 µM) and the MIC (C. difficile; Clostridioides difficile, isolate ORG ID AB2 1725, read-out: MIC) was 0.06 µg/mL (≈ 0.0567 µM). It also gave an MIC (C. difficile; Clostridioides difficile, isolate ORG ID AC1 1546, read-out: MIC) of 0.06 µg/mL (≈ 0.0567 µM), an MIC (C. difficile; Clostridioides difficile, isolate ORG ID AJ1 1557, read-out: MIC) of 0.06 µg/mL (≈ 0.0567 µM) and an MIC (C. difficile; Clostridioides difficile, isolate ORG ID AL1 1753, read-out: MIC) of 0.06 µg/mL (≈ 0.0567 µM). It also gave an MIC (C. difficile; Clostridioides difficile, isolate ORG ID AV1 941, read-out: MIC) of 0.25 µg/mL (≈ 0.236 µM), an MIC (C. difficile; Clostridioides difficile, isolate ORG ID B1 832, read-out: MIC) of 0.06 µg/mL (≈ 0.0567 µM) and an MIC (C. difficile; Clostridioides difficile, isolate ORG ID BH1 4506, read-out: MIC) of 0.06 µg/mL (≈ 0.0567 µM). The MIC (C. difficile; Clostridioides difficile, isolate ORG ID BM1 1453, read-out: MIC) was 0.06 µg/mL (≈ 0.0567 µM), the MIC (C. difficile; Clostridioides difficile, isolate ORG ID BR1 1321, read-out: MIC) was 0.06 µg/mL (≈ 0.0567 µM) and the MIC (C. difficile; Clostridioides difficile, isolate ORG ID BT1 706, read-out: MIC) was 0.06 µg/mL (≈ 0.0567 µM). For the same compound, the MIC (C. difficile; Clostridioides difficile, isolate ORG ID CB1 1584, read-out: MIC) was 0.25 µg/mL (≈ 0.236 µM), the MIC (C. difficile; Clostridioides difficile, isolate ORG ID CL1 3851, read-out: MIC) was 0.25 µg/mL (≈ 0.236 µM) and the MIC (C. difficile; Clostridioides difficile, isolate ORG ID CN1 667, read-out: MIC) was 0.25 µg/mL (≈ 0.236 µM). It also gave an MIC (C. difficile; Clostridioides difficile, isolate ORG ID CO1 4652, read-out: MIC) of 0.25 µg/mL (≈ 0.236 µM), an MIC (C. difficile; Clostridioides difficile, isolate ORG ID D1 1360, read-out: MIC) of 0.03 µg/mL (≈ 0.0284 µM) and an MIC (C. difficile; Clostridioides difficile, isolate ORG ID E1 816, read-out: MIC) of 0.06 µg/mL (≈ 0.0567 µM). For the same compound, the MIC (C. difficile; Clostridioides difficile, isolate ORG ID J1 5971, read-out: MIC) was 0.06 µg/mL (≈ 0.0567 µM), the MIC (C. difficile; Clostridioides difficile, isolate ORG ID J7 4224, read-out: MIC) was 0.03 µg/mL (≈ 0.0284 µM) and the MIC (C. difficile; Clostridioides difficile, isolate ORG ID J9 4478, read-out: MIC) was 0.06 µg/mL (≈ 0.0567 µM). The MIC (C. difficile; Clostridioides difficile, isolate ORG ID O1 1861, read-out: MIC) was 0.06 µg/mL (≈ 0.0567 µM), the MIC (C. difficile; Clostridioides difficile, isolate ORG ID R6 6015, read-out: MIC) was 0.015 µg/mL (≈ 0.0142 µM) and the MIC (C. difficile; Clostridioides difficile, isolate ORG ID Y1 5639, read-out: MIC) was 0.06 µg/mL (≈ 0.0567 µM). The MIC (C. difficile; Clostridioides difficile, isolate ORG ID Y2 1459, read-out: MIC) was 0.06 µg/mL (≈ 0.0567 µM), the MIC (C. difficile; Clostridioides difficile, isolate ORG ID Z1 3036, read-out: MIC) was 0.03 µg/mL (≈ 0.0284 µM) and the MIC50 (C. difficile; [2]) was 0.125 µg/mL (≈ 0.118 µM). For the same compound, the MIC90 (C. difficile; [2]) was 0.125 µg/mL (≈ 0.118 µM) and the MIC (C. difficile; Clostridioides difficile, 110 clinical isolates, agar dilution, read-out: Geometric Mean (MIC)) was 0.08 µg/mL (≈ 0.0756 µM).
